The record followed here is ChEMBL document CHEMBL4024707, “Using gene expression database to uncover biology functions of 1,4-disubstituted 1,2,3-triazole analogues synthesized via a copper (I)-catalyzed reaction” (Eur J Med Chem, 2017).

A word on the IC50: it is the concentration at which inhibition is half-maximal. Low readings indicate higher potency, high ones lower potency.

Activity calls are given as the source filed them. No cut-off for these calls is given here.

One assay concerns HT-29. Description: Cytotoxicity against human HT-29 cells after 6 days by MTT assay. It counts as functional, cell-based. Particulars: HT-29, 144 h. Background: Tetrazolium dyes change colour on reduction, which living cells bring about.
The subject of assay [1] is Hep 3B2. Description: Cytotoxicity against human Hep3B cells after 6 days by MTT assay. It counts as functional, cell-based. Particulars: 144 h.
The subject of assay [2] is Hep 3B2. Description: Induction of autophagy in human Hep3B cells assessed as ratio of LC3-2 to beta-actin level at 30 uM after 48 hrs by Western blot analysis. It counts as functional.
In assay [3] the test system is Hep 3B2. Nature of the assay: Cell cycle arrest in human Hep3B cells assessed as accumulation at G2/M phase at 30 uM after 48 hrs by propidium iodide staining based flow cytometry (reference value: 36.6 +/- 2.9%). It counts as functional. A general note: A flow cytometer gives signals particle by particle.
The test system of assay [4] is Hep 3B2. Description: Induction of apoptosis in human Hep3B cells assessed as ratio of cleaved caspase-3 to beta actin level at 30 uM after 48 hrs by Western blot analysis. It counts as functional. In general terms: Immunoblotting shows a protein as a band on a membrane.
The subject of assay [5] is Hep 3B2. Nature of the assay: Growth inhibition of human Hep3B cells at 30 uM after 48 hrs by MTT assay. Type of assay: functional, cell-based.
In assay [6] the test system is Hep 3B2. Nature of the assay: Cell cycle arrest in human Hep3B cells assessed as accumulation at sub-G1 phase at 30 uM after 48 hrs by propidium iodide staining based flow cytometry (reference value: 3.7 +/- 0.4%). Type of assay: functional.
Assay [7] has as its system Hep 3B2. Description: Cell cycle arrest in human Hep3B cells assessed as accumulation at S phase at 30 uM after 48 hrs by propidium iodide staining based flow cytometry (reference value: 23.8 +/- 1.9%). It counts as functional.
Assay [8] deals with Hep 3B2. Nature of the assay: Cell cycle arrest in human Hep3B cells assessed as accumulation at G0/G1 phase at 30 uM after 48 hrs by propidium iodide staining based flow cytometry (reference value: […] +/- […]%). Type of assay: functional.

Regarding `O=C1COc2ccccc2N1Cc1cn(Cc2cccc3ccccc23)nn1`, the IC50 amounted to 17 µM in the assay with HT-29 and 15.2 µM in the assay on Hep 3B2 [1].
In the case of `COc1cc(/C=C/C(=O)CC(=O)/C=C/c2ccc(O)c(OC)c2)ccc1O` [CURCUMIN], the Ratio in the assay on Hep 3B2 [2] is 6.6; with Hep 3B2 [4] it was 1.2. For the same compound, the Activity with Hep 3B2 [3] is given as 46.7%; in the assay with Hep 3B2 [6], 14.2%; with Hep 3B2 [7], 16.4%; in the assay with Hep 3B2 [8], 22.7%. Further, the “growth inhibition (GI)” value with Hep 3B2 [5] is “Active”.
Take `Cc1ccc2c(c1)OCC(=O)N2Cc1cn(Cc2ccccc2)nn1`: the values for the IC50 with HT-29 and with Hep 3B2 [1] were 54.9 µM and more than 100 µM, respectively.
On the same counts, the results for `O=C1COc2cccnc2N1Cc1cn(Cc2ccccc2)nn1` are 12.8 µM and 8.7 µM.
The matching figures for `O=C1COc2ccccc2N1Cc1cn(C/C=C/c2ccccc2)nn1`: more than 100 µM and 38.9 µM.
On the same counts, the results for `Cc1ccc2c(c1)N(Cc1cn(Cc3ccccc3)nn1)C(=O)CO2` are more than 100 µM and more than 100 µM.
In the case of `CCOC(=O)Cn1cc(CN2C(=O)COc3ccccc32)nn1`, the IC50 with HT-29 is 36.4 µM; in the assay on Hep 3B2 [1], 19 µM.
Turning to `O=C1COc2ccccc2N1Cc1cn(CCc2ccccc2)nn1`, the IC50 was found to be 48.8 µM with HT-29 and 66 µM with Hep 3B2 [1].
The matching figures for `Cc1ccc(Cn2cc(CN3C(=O)COc4ccccc43)nn2)cc1`: 28.6 µM and more than 100 µM.
On the same counts, the results for `O=C1COc2ccccc2N1Cc1cn(Cc2ccc([N+](=O)[O-])cc2)nn1` are 15.6 µM and 29.6 µM.
The matching figures for `COc1ccc2c(c1)OCC(=O)N2Cc1cn(Cc2ccccc2)nn1`: 9.3 µM and 9.2 µM.
On to `COc1ccc(Cn2cc(CN3C(=O)COc4ccccc43)nn2)cc1`, for which the IC50 in the assay with HT-29 was 18.5 µM; in the assay on Hep 3B2 [1], more than 100 µM.
For the compound `O=C1COc2ccccc2N1Cc1cn(Cc2ccc3ccccc3n2)nn1`, the IC50 in the assay with HT-29 and in the assay on Hep 3B2 [1] was more than 100 µM each time.
Turning to `CCOC(=O)c1ccc2c(c1)N(Cc1cn(Cc3ccccc3)nn1)C(=O)CO2`, the IC50 with HT-29 was found to be 41.5 µM; in the assay on Hep 3B2 [1] it was 17.1 µM.
In the case of `O=C1COc2ccccc2N1Cc1cn(Cc2ccc(Cl)cc2)nn1`, the figures for the IC50 in the assay with HT-29 and in the assay on Hep 3B2 [1] were 21.9 µM and more than 100 µM, respectively.
Take `O=C1COc2ccccc2N1Cc1cn(Cc2ccccc2)nn1`: the IC50 was more than 100 µM with HT-29 and 84.5 µM with Hep 3B2 [1].
For `Cc1cc2c(cc1Cl)N(Cc1cn(Cc3ccccc3)nn1)C(=O)CO2`, the IC50 is 19.6 µM with HT-29 and more than 100 µM with Hep 3B2 [1].
The matching figures for `COC(=O)Cn1cc(CN2C(=O)COc3ccccc32)nn1`: 50.8 µM and more than 100 µM.
The matching figures for `CCCC1Oc2ccccc2N(Cc2cn(Cc3ccccc3)nn2)C1=O` (stereo unspecified): more than 100 µM and 61.8 µM.
On the same counts, the results for `COc1ccc2c(c1)N(Cc1cn(Cc3ccccc3)nn1)C(=O)CO2` are more than 100 µM and more than 100 µM.
On to `O=C1COc2ccccc2N1Cc1cn(CCc2c[nH]c3ccccc23)nn1`, for which the results for the IC50 with HT-29 and in the assay on Hep 3B2 [1] were 15.2 µM and 70 µM, respectively.
On the same counts, the results for `O=C1COc2ccc(F)cc2N1Cc1cn(Cc2ccccc2)nn1` are more than 100 µM and more than 100 µM.
On the same counts, the results for `O=C1COc2ccc(Cl)cc2N1Cc1cn(Cc2ccccc2)nn1` are 76.5 µM and 55.5 µM.
The matching figures for `CC(C)(C)c1ccc(Cn2cc(CN3C(=O)COc4ccccc43)nn2)cc1`: 25.1 µM and 25.6 µM.
Take `O=C1C(c2ccccc2)Oc2ccccc2N1Cc1cn(Cc2ccccc2)nn1` (stereo unspecified): the IC50 in the assay with HT-29 and in the assay with Hep 3B2 [1] was more than 100 µM throughout.
As for `CCC1Oc2ccccc2N(Cc2cn(Cc3ccccc3)nn2)C1=O` (stereo unspecified), the IC50 in the assay with HT-29 and in the assay with Hep 3B2 [1] was more than 100 µM throughout.
In the case of `CCCCCCn1cc(CN2C(=O)COc3ccccc32)nn1`, the IC50 in the assay on HT-29 is 34.4 µM; with Hep 3B2 [1], more than 100 µM.
The matching figures for `O=C1COc2cc(F)ccc2N1Cc1cn(Cc2ccccc2)nn1`: more than 100 µM and 0.9 µM.
